Laboratory results reported in patent publication US20130236568A1, “PHOSPHAPLATINS HAVING ANTI-ANGIOGENIC, ANTI-METASTATIC, AND PRO-APOPTOTIC PROPERTIES AND USES THEREOF” (Ohio University, priority 2011, published 2013).

Columns and labels:
Assay type in all cases: cell-based, human
[1] = tested on: PTEN; assay: Quantitative real-time PCR, PTEN expression in A2780/C30 cells
Protocol: (§1) Evaluations of selected gene expressions in Human Umbilical Vein Endothelial Cells (HUVEC) and Human Ovarian Cancer Cells by quantitative reverse transcriptase polymerase chain reaction (PCR)
(§2) Quantitative real-time PCR experiments were performed to estimate the expression of a selection of targeted genes. HUVEC cells (Lonza Walkersville, Frederick, Md.) were cultured on 0.1% gelatin-coated petri dishes by following standard protocols recommended by the vendor in a humidified incubator by maintaining 5% CO2 at 37° C. […]
(§3) Both treated and untreated cancer cells were maintained in RPMI 1640 medium with 10% fetal bovine serum, 2 μmol L-glutamine, 100 units/mL penicillin-streptomycin and 0.25 units/mL insulin solution, at 37° C. with 5% CO2. […] The quantity and purity of RNA were determined by UV spectroscopy (NanoDrop 2000 Thermo Scientific, Wilmington, Del.). A minimum absorbance ratio index (ratio of the absorbance measured at 260 nm over that at 280 nm) of 1.9 was used as an acceptable purity. […] The target gene was labeled with a blue dye (FAM, absorbance: 494 nm, emission: 518 nm) while the reference gene was tagged with a green dye (VIC, absorbance: 538 nm, emission: 554 nm). […]
(§4) The threshold cycle number (Ct), the point at which the fluorescence of the qPCR reaction just exceeds the threshold fluorescence of the detection system, was determined. […]

[2] = tested on: VEGFR-2; assay: Expression of key genes with and without p53 inhibitor (Table 3): VEGFR-2; settings: positive = manifold increase, negative = decrease vs untreated cells
Protocol: (§5) Quantitative real-time PCR experiments were performed to estimate the expression of a selection of targeted genes. HUVEC cells (Lonza Walkersville, Frederick, Md.) were cultured on 0.1% gelatin-coated petri dishes by following standard protocols recommended by the vendor in a humidified incubator by maintaining 5% CO2 at 37° C. Human epithelial ovarian cancer cells (A2780) and cisplatin-resistant cells (A2780/C30) were cultured in RPMI 1640 with or without cisplatin (7 μM) and pyrodach-4 (180 μM) for 0, 3, 12 and 24 hours. […] HUVECs were treated with or without cisplatin (7 μM) or pyrodach-4 (90 or 180 μM) for various durations ranging from 1 hr. to 6 hrs.
as §3, with “CO2. RNA was isolated from both the treated and untreated cells.” for “CO2.”

[3] = tested on: PUMA; assay: Quantitative real-time PCR, PUMA expression in HUVEC; settings: HUVEC treated with pyrodach-4
Protocol: as §1, §2, §3, §4

[4] = tested on: PUMA; assay: Expression of key genes with and without p53 inhibitor (Table 3): PUMA; settings: positive = manifold increase, negative = decrease vs untreated cells
Protocol: as §5
as §3, with “CO2. RNA was isolated from both the treated and untreated cells.” for “CO2.”

[5] = tested on: FasL; assay: Quantitative real-time PCR, FasL expression in HUVEC; settings: HUVEC treated with pyrodach-4
Protocol: as §1, §2, §3, §4

[6] = tested on: VEGFR2 gene; assay: Quantitative real-time PCR, VEGFR2 gene expression in HUVEC cells
Protocol: as §1, §2, §3, §4

[7] = tested on: BID; assay: Expression of key genes with and without p53 inhibitor (Table 3): BID; settings: positive = manifold increase, negative = decrease vs untreated cells
Protocol: as §5
as §3, with “CO2. RNA was isolated from both the treated and untreated cells.” for “CO2.”

[8] = tested on: Fas; assay: Quantitative real-time PCR, Fas expression in HUVEC; settings: HUVEC treated with pyrodach-4
Protocol: as §1, §2, §3, §4

[9] = tested on: p53; assay: Expression of key genes with and without p53 inhibitor (Table 3): p53; settings: positive = manifold increase, negative = decrease vs untreated cells
Protocol: as §5
as §3, with “CO2. RNA was isolated from both the treated and untreated cells.” for “CO2.”

[10] = tested on: PTEN; assay: Quantitative real-time PCR, PTEN expression in HUVEC; settings: HUVEC treated with pyrodach-4
Protocol: as §1, §2, §3, §4

[11] = tested on: A2780 cells; assay: Cell death detection assay with ELISA, A2780 cells; settings: 24 hr
Protocol: In these experiments, ovarian cancer cells were treated with pyrodach-4 in the presence and absence of inhibitors PFT-α (an inhibitor p53) and LY29400 (an inhibitor of PI3K).
Cells were treated with compounds for 24 hr. The different treatment groups from left to right are: control, 7 μM cisplatin, Con+PFT-α, 180 μM D4, 180 μM D4+PFT-α, 180 μM D4+LY294002. Statistical analysis was conducted using the Tukey test. N=3 and P<0.05. In the figure, “*” indicates values significant from untreated control.
A2780 and A2780/C30 cells were grown in monolayers, trypsinized and suspended in supplemented RPMI 1640 media as described in Example 5. All the treatments on the Fc/A2780 and Fc/A2780/C30 cell samples were carried out in triplicate. The ELISA was performed according to the manufacturer's instructions. Briefly, 50,000 cells were plated for each treatment and the cells were allowed to adhere for 4-6 hours. Cells were then either incubated with media alone (untreated sample) or with pyrodach-4 or cisplatin in the concentrations indicated above. […] The absorbances were measured at 405 and 490 nm for each treatment type using SPECTRA Max M2 multichannel fluorescence plate reader (Molecular Devices, Sunnyvale, Calif.). The absorbances of the treated samples were normalized to the substrate solution. […]

“trans-(±)-1,2-cyclohexanediamine-trans-dihydroxo(pyrophosphato) platinum(IV) [Pyrodach-4]” was tested, and the “Expression of the PTEN gene compared to control” value [1] was 2.3 fold, the “Normalized expression of PTEN” value ([1]; pyrodach-4 alone, control = 1.0) was 2.3 and the “Expression of VEGFR-2” value ([2]; Pyrodach-4 + PFT-α) was −1.6. The “Expression of VEGFR-2” value ([2]; Pyrodach-4 treatment only) was −1.9, the “Over-expression of PUMA” value [3] was 10-15 fold and the “Expression of PUMA” value ([4]; Pyrodach-4 + PFT-α) was 4.4. For the same substance, the “Expression of PUMA” value ([4]; Pyrodach-4 treatment only) was 16.6, the “Over-expression of FasL” value [5] was 2-4 fold and the “Suppression of VEGFR-2 expression” value [6] was no more than 50%. The “Normalized expression of VEGFR2 gene” value ([6]; positive = manifold increase, negative = relative decrease vs untreated cells, pyrodach-4 90 or 180 μM, 1 to 6 hrs) was −2.0, the “Expression of BID” value ([7]; Pyrodach-4 + PFT-α) was 1.0 and the “Expression of BID” value ([7]; Pyrodach-4 treatment only) was 1.8. The “Over-expression of Fas” value [8] was 2-5 fold, the “Expression of p53” value ([9]; Pyrodach-4 + PFT-α) was 2.1 and the “Expression of p53” value ([9]; Pyrodach-4 treatment only) was 1.8. For the same substance, the “Over-expression of PTEN” value [10] was 4-8 fold, the “Overall apoptotic cell death in the presence of inhibitors, compared to cisplatin” value ([11]; 180 μM D4 with PFT-α 15 μM or LY294002 30 μM vs 7 μM cisplatin) was “remained extremely high compared to cisplatin” and the “Effect of p53 and PI3K inhibitors on apoptotic cell death (ELISA absorbance)” value ([11]; 180 μM D4 with PFT-α 15 μM or LY294002 30 μM) was “some reduction in cell death”.
